Consider three compounds from patent US11306074B2, “Chemical and method for analyzing DNA sequence by visualizing single-molecule DNA and use thereof” (SOGANG UNIVERSITY RESEARCH FOUNDATION, priority 2018, dated 2022).

In one experiment the test system is λ DNA. Conditions: for staining / visualization of λ DNA molecules: λ DNA (48.5 kbp) tethered, 1×TE flow 100 μL/minute, 70 μM dye solution mixed 1:1, 20-fold diluted, FIGS. 2a-2c. The protocol: An inverted microscope (Olympus IX70, Tokyo, Japan) with 60× Olympus UPlanSApo oil immersion objectives illuminated with an LED light source (SOLA SM II light engine, Lumencor, Beaverton, Oreg., USA) was used. The light was passed through corresponding filter sets (Semrock, Rochester, N.Y., USA) to set the excitation and emission wavelengths. A maximum light intensity of 140 mW/cm^2 was measured. Fluorescence microscopic images were taken with an electron-multiplying charge-coupled device digital camera (Evolve EMCCD, Roper Scientific, Tucson, Ariz., USA) and stored in a 16-bit TIFF format using the software Micro-manager. For image processing and analysis, ImageJ software with Java plug-ins and python programs developed by the present inventors were utilized.
First, λ DNA (NCBI: NC_001416.1) was diluted to a concentration of 5 ng/μL (0.16 nM; base pair 7.76 μM) in 1×TE (10 mM Tris, 1 mM EDTA, pH 8.0) and mixed at a volume ratio of 1:1 with 70 μM of the Preparation Example solution. Next, the mixture was incubated at room temperature for 15 min and 20-fold diluted with 4% […] (β-ME) in 1×TE.
Separately, a flow chamber (5×10×0.1 mm (L×W×H)) was prepared by placing an acrylic support on an acid-cleaned cover slip, with the walls formed by double-sided tape, An NE-1000 syringe pump (New Era Pump Systems Inc., Wantagh, N.Y.) was used to control the buffer.
Thereafter, 40 μg/mL biotinylated bovine serum albumin (BSA) was injected and incubated at room temperature for 10 min, after which a dilution of 20 μg/mL Neutravidin in T50 solution (10 mM Tris, […], pH 8.0) was injected to the flow chamber and incubated at room temperature for 10 min.
Then, 1 μM of λ DNA overhang oligo (5′-p-[…]-Triethyleneglycol-biotin-3′) was loaded into the flow chamber and maintained at room temperature for 10 minutes. λ DNA, 200 U of T4 DNA ligase, and reaction buffer were added and incubated at room temperature for 30 minutes.
Stained DNA molecules were visualized under a continuous flow of 1×TE (100 μl/minute).

The test system of experiment [1] is polytene chromosomes from the Drosophila melanogaster salivary gland. The conditions noted are these: 2.5 μM in 4% β-ME; tangled and spread polytene chromosomes; FIG. 5a.
Description: For comparison with DAPI, which is conventionally used to visualize polytene chromosomes on a fluorescence microscope, the polytene chromosomes from the Drosophila melanogaster salivary gland were stained with the compound.
In brief, dissected salivary glands from third larvae of Drosophila melanogaster were fixed with a solution containing a 1:2:3 ratio of propionic acid, deionized water, and acetic acid on a positively charged coverslip. Then, the cells were located between a slide glass and the coverslip and then the individual cells were gently spread. After moving the coverslip back and forth on the slide glass, the spread cells were squashed for up to 15 minutes. Then, the slide glass and coverslip were slightly dipped into liquid nitrogen. Just after no more bubbles were generated, the cover slip was removed from the slide glass.

Description for λ DNA genome: Python Program • ImageCompare.py: a library of functions, • seq2map.py: to convert a FASTA file into a A/T frequency in silico map wherein a selected sequence is represented in white for high frequency regions and in black for low frequency regions. • insilicoMapFolder.py: to scan and compare in silico image files and DNA images obtained through experiments with respect to all images in the folder, to search positions of sites having the highest cross-correlation coefficient, to convert the values, and to store the values in new record files. • sortView.py: to read record files obtained with the insilicoMapFolder.py, to compare signals, to search cross-correlation coefficients, and to visualize image comparison in a new window. • randomtiff.py: to generate random intensity tiff images
Cross-correlation (cc) coefficient values calculated by comparing the alignment of 20 molecular images of above three kinds of binding sequences (W, W4 and W9) with the genome. The control cross-correlation coefficient (hereinafter referred to as cc) was obtained by comparing the 100 computer-generated random sequences with the in silico images (***P<0.0001 for random-sequences paired t-test).

Turning to `CN(C)CCCNC(=O)c1cc(NC(=O)c2cc(NC(=O)c3cc(NC(=O)c4cc(NC(=O)CCNC(=O)c5cc(NC(=O)c6cc(NC(=O)c7cc(NC(=O)c8cc(NC(=O)CCNC(=O)CCNC(=O)c9ccc(-c%10c%11ccc(=[N+](C)C)cc-%11oc%11cc(N(C)C)ccc%10%11)c(C(=O)[O-])c9)cn8C)cn7C)cn6C)cn5C)cn4C)cn3C)cn2C)cn1C` [Preparation Example, (5-carboxytetramethylrhodamine)-(β-alanine)2-(N-methylpyrrole)4-(β-alanine)-(N-methylpyrrole)4-(3-(dimethylamino)propylamine)], in the experiment with λ DNA genome (W, W4, W9 maps, Python program, FIG. 3b), the “cross-correlation coefficient (cc) of 20 molecular images aligned with λ DNA genome” value was “highest cc value for simple A/T frequency”. The “agreement of measured fluorescence intensity with in silico binding sequence profiles (W, W4, W9)” value in the experiment with λ DNA genome (λ genome, FIG. 3a) was “agrees better with simple A/T frequency than W4 and W9”. For the same compound, in the experiment on λ DNA, the “staining / visualization of λ DNA molecules” value (“staining / visualization” below) is on record as “visualized λ DNA molecules with sequence specificity as well as enhancing the intensity of the molecules”. Moreover, the “fluorescent λ DNA image quality compared with DAPI” value in the experiment on λ DNA (λ DNA images, FIG. 5b) is “exhibits a clear backbone compared with DAPI-stained DNA”. In experiment [1], the “staining of polytene chromosomal DNA” value was “clearly demonstrate band and interband patterns”.
In the case of “(5-carboxytetramethylrhodamine)-(β-alanine)2-(N-methylpyrrole)4-(5-carboxytetramethylrhodamine) [Comparative Example 2, reference compound]”, in the experiment on λ DNA, the “staining / visualization” value is recorded as “did not bind double-stranded DNA at all”.
`CN(C)CCCNC(=O)c1cc(NC(=O)c2cc(NC(=O)c3cc(NC(=O)c4cc(NC(=O)CCNC(=O)CCNC(=O)c5ccc(C(=O)[O-])c(-c6c7ccc(=[N+](C)C)cc-7oc7cc(N(C)C)ccc67)c5)cn4C)cn3C)cn2C)cn1C` [Comparative Example 1, (5-carboxytetramethylrhodamine)-(β-alanine)2-(N-methylpyrrole)4-(3-(dimethylamino)propylamine), reference compound]: in the experiment with λ DNA, the “staining / visualization” value is “stained only in part AT-rich regions and bound undesired regions”.
